In US20230265151A1, “GIP/GLP1 CO-AGONIST COMPOUNDS” (priority 2020, published 2023):

Assays:
Assay type in all cases: cell-based
hGIPR = target: T1, hGIPR (Homo sapiens, UniProt P48546); assay: Functional cAMP formation (HTRF) in HEK-293 clonal cells expressing hGIPR, 0.1% bovine casein, without or with 1.0% human serum albumin; settings: for Emax: HEK293, percent of maximal response to GIP(1-42)NH2, 37° C., 0.1% bovine casein, arithmetic mean, read-out: hGIPR Emax, % ± SEM; for EC50: cAMP, incubated at 37° C., 0.1% bovine casein (no human serum albumin), geometric mean, read-out: hGIPR EC50, nM (SEM, n)
T1 construct: expressed in transfected cells
T1 sequence (P48546 22-466): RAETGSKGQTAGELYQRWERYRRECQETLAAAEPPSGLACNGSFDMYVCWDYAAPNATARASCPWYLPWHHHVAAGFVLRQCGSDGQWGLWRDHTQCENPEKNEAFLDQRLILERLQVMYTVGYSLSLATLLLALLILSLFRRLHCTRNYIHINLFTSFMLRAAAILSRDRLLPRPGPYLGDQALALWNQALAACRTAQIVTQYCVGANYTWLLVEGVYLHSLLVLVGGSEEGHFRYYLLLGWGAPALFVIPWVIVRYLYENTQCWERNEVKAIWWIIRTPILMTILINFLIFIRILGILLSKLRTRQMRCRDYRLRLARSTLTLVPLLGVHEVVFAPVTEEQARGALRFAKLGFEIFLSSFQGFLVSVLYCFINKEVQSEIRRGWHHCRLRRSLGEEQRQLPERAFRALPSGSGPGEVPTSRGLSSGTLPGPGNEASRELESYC
In short: (§1)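 Cells were stimulated with peptide for 30 min at 37° C, then intracellular cAMP was measured by competitive HTRF (665/620 nm ratio) and converted to nM using a cAMP standard curve. Relative EC50 and Emax came from four-parameter logistic fits of percent maximal response against peptide concentration.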

hGCGR = target: T2, hGCGR (Homo sapiens, UniProt P47871); assay: Functional cAMP formation (HTRF) in HEK-293 clonal cells expressing hGCGR, 0.1% bovine casein, without or with 1.0% human serum albumin; settings: cAMP, incubated at 37° C., 0.1% bovine casein (no human serum albumin); geometric mean; read-out: hGCGR EC50, nM (SEM, n)
T2 construct: expressed in transfected cells
In short: as §1

hGLP-1R = hGLP-1R (Homo sapiens, UniProt P43220); assay: Functional cAMP formation (HTRF) in HEK-293 clonal cells expressing hGLP-1R, 0.1% bovine casein, without or with 1.0% human serum albumin; parameters: expressed in transfected cells; settings: for Emax: HEK293, percent of maximal response to GLP-1(7-36)NH2, 37° C., 0.1% bovine casein, arithmetic mean, read-out: hGLP-1R Emax, % ± SEM; for EC50: cAMP, incubated at 37° C., 0.1% bovine casein (no human serum albumin), geometric mean, read-out: hGLP-1R EC50, nM (SEM, n)
In short: as §1

hGLP-1R, sequence (P43220 24-463): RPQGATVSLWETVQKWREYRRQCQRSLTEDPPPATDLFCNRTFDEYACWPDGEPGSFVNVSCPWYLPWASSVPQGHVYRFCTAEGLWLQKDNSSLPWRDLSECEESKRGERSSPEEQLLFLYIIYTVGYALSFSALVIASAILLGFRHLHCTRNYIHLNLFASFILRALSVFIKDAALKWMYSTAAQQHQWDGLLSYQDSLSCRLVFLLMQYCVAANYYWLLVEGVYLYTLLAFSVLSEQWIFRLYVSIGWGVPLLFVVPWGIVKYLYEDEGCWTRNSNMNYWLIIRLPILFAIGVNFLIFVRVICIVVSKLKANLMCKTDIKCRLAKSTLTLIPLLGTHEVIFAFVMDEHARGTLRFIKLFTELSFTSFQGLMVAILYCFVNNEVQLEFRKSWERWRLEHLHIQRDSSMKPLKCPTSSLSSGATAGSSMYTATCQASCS
T2 sequence (P47871 26-477): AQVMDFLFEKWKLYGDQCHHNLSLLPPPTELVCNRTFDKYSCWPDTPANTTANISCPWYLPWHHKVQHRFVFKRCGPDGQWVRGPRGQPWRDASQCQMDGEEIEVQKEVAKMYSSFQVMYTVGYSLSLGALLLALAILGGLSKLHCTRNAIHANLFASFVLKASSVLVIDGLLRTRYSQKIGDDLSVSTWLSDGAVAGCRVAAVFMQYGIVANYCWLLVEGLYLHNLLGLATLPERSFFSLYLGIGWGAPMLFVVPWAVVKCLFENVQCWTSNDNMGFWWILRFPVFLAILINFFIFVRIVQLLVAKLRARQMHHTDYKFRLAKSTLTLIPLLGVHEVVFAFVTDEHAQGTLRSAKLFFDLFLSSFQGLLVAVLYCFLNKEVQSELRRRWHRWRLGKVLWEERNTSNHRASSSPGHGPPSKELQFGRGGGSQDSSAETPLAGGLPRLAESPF

Compound | Emax (hGIPR) [%] | EC50 (hGIPR) [nM] | EC50 (hGCGR) [nM] | Emax (hGLP-1R) [%] | EC50 (hGLP-1R) [nM]
CC[C@H](C)[C@H](NC(=O)[C@H](CC(C)C)NC(=O)[C@](C)(Cc1ccc(O)cc1)NC(=O)[C@@H](CCC(=O)O)NC(=O)[C@@H](NC(=O)[C@H](Cc1ccccc1)NC(=O)[C@H](CCC(=O)O)NC(=O)C(C)(C)NC(=O)[C@H](CCC(N)=O)NC(=O)[C@H](C)NC(=O)[C@H](CCCCNC(=O)COCCOCCNC(=O)COCCOCCNC(=O)CC[C@H](NC(=O)CCCCCCCCCCCCC(=O)O)C(=O)O)NC(=O)[C@H](CCCN)NC(=O)[C@H](CC(=O)O)NC(=O)[C@H](CC(C)C)NC(=O)[C@](C)(CC(C)C)NC(=O)[C@@H](NC(=O)[C@H](CO)NC(=O)[C@H](Cc1cscn1)NC(=O)[C@H](CC(=O)O)NC(=O)[C@H](CO)NC(=O)[C@@H](NC(=O)[C@](C)(Cc1ccccc1F)NC(=O)[C@@H](NC(=O)CNC(=O)[C@H](CCC(=O)O)NC(=O)C(C)(C)NC(=O)[C@@H](N)Cc1ccc(O)cc1)[C@@H](C)O)[C@@H](C)O)[C@@H](C)CC)[C@@H](C)CC)C(=O)N[C@@H](CCC(=O)O)C(=O)NCC(=O)NCC(=O)N[C@@H](CCCCNC(=O)COCCOCCNC(=O)COCCOCCNC(=O)CC[C@H](NC(=O)CCCCCCCCCCCCC(=O)O)C(=O)O)C(=O)N[C@@H](CO)C(=O)N[C@@H](CO)C(=O)NCC(=O)N[C@@H](C)C(=O)N1CCC[C@H]1C(=O)N1CCC[C@H]1C(=O)N1CCC[C@H]1C(=O)N[C@@H](CO)C(N)=O [Example 144] | 90 | 0.0193 | > 9950 | 97 | 3.47
CC[C@H](C)[C@H](NC(=O)[C@H](CC(C)C)NC(=O)[C@](C)(Cc1ccc(O)cc1)NC(=O)[C@@H](CCC(=O)O)NC(=O)[C@@H](NC(=O)[C@H](Cc1ccccc1)NC(=O)[C@H](CCC(=O)O)NC(=O)C(C)(C)NC(=O)[C@H](CCC(N)=O)NC(=O)[C@H](C)NC(=O)[C@H](CCCCNC(=O)COCCOCCNC(=O)COCCOCCNC(=O)CC[C@H](NC(=O)CCCCCCCCCCCCC(=O)O)C(=O)O)NC(=O)[C@H](CCCN)NC(=O)[C@H](CC(=O)O)NC(=O)[C@H](CC(C)C)NC(=O)[C@](C)(CC(C)C)NC(=O)[C@@H](NC(=O)[C@H](CO)NC(=O)[C@H](Cc1cccs1)NC(=O)[C@H](CC(=O)O)NC(=O)[C@H](CO)NC(=O)[C@@H](NC(=O)[C@](C)(Cc1ccccc1F)NC(=O)[C@@H](NC(=O)CNC(=O)[C@H](CCC(=O)O)NC(=O)C(C)(C)NC(=O)[C@@H](N)Cc1ccc(O)cc1)[C@@H](C)O)[C@@H](C)O)[C@@H](C)CC)[C@@H](C)CC)C(=O)N[C@@H](CCC(=O)O)C(=O)NCC(=O)NCC(=O)N[C@@H](CCCCNC(=O)COCCOCCNC(=O)COCCOCCNC(=O)CC[C@H](NC(=O)CCCCCCCCCCCCC(=O)O)C(=O)O)C(=O)N[C@@H](CO)C(=O)N[C@@H](CO)C(=O)NCC(=O)N[C@@H](C)C(=O)N1CCC[C@H]1C(=O)N1CCC[C@H]1C(=O)N1CCC[C@H]1C(=O)N[C@@H](CO)C(N)=O [Example 145] | 74.8 | 0.0286 | > 9950 | 95.1 | 0.555
CC[C@H](C)[C@H](NC(=O)[C@H](CC(C)C)NC(=O)[C@](C)(Cc1ccc(O)cc1)NC(=O)[C@@H](CCC(=O)O)NC(=O)[C@@H](NC(=O)[C@H](Cc1csc2ccccc12)NC(=O)[C@H](CCC(=O)O)NC(=O)C(C)(C)NC(=O)[C@H](CCC(N)=O)NC(=O)[C@H](C)NC(=O)[C@H](CCCCNC(=O)COCCOCCNC(=O)COCCOCCNC(=O)CC[C@H](NC(=O)CCCCCCCCCCCCC(=O)O)C(=O)O)NC(=O)[C@H](CCCN)NC(=O)[C@H](CC(=O)O)NC(=O)[C@H](CC(C)C)NC(=O)[C@](C)(CC(C)C)NC(=O)[C@@H](NC(=O)[C@H](CO)NC(=O)[C@H](Cc1ccncc1)NC(=O)[C@H](CC(=O)O)NC(=O)[C@H](CO)NC(=O)[C@@H](NC(=O)[C@](C)(Cc1ccccc1F)NC(=O)[C@@H](NC(=O)CNC(=O)[C@H](CCC(=O)O)NC(=O)C(C)(C)NC(=O)[C@@H](N)Cc1ccc(O)cc1)[C@@H](C)O)[C@@H](C)O)[C@@H](C)CC)[C@@H](C)CC)C(=O)N[C@@H](CCC(=O)O)C(=O)NCC(=O)NCC(=O)N[C@@H](CCCCNC(=O)COCCOCCNC(=O)COCCOCCNC(=O)CC[C@H](NC(=O)CCCCCCCCCCCCC(=O)O)C(=O)O)C(=O)N[C@@H](CO)C(=O)N[C@@H](CO)C(=O)NCC(=O)N[C@@H](C)C(=O)N1CCC[C@H]1C(=O)N1CCC[C@H]1C(=O)N1CCC[C@H]1C(=O)N[C@@H](CO)C(N)=O [Example 147] | – | 0.0229 | > 9950 | 93.5 | 0.338
CC[C@H](C)[C@H](NC(=O)[C@H](CC(C)C)NC(=O)[C@](C)(Cc1ccc(O)cc1)NC(=O)[C@@H](CCC(=O)O)NC(=O)[C@@H](NC(=O)[C@H](CC1CCCCC1)NC(=O)[C@H](CCC(=O)O)NC(=O)C(C)(C)NC(=O)[C@H](CCC(N)=O)NC(=O)[C@H](C)NC(=O)[C@H](CCCCNC(=O)COCCOCCNC(=O)COCCOCCNC(=O)CC[C@H](NC(=O)CCCCCCCCCCCCC(=O)O)C(=O)O)NC(=O)[C@H](CCCN)NC(=O)[C@H](CC(=O)O)NC(=O)[C@H](CC(C)C)NC(=O)[C@](C)(CC(C)C)NC(=O)[C@@H](NC(=O)[C@H](CO)NC(=O)[C@H](Cc1ccncc1)NC(=O)[C@H](CC(=O)O)NC(=O)[C@H](CO)NC(=O)[C@@H](NC(=O)[C@](C)(Cc1ccccc1F)NC(=O)[C@@H](NC(=O)CNC(=O)[C@H](CCC(=O)O)NC(=O)C(C)(C)NC(=O)[C@@H](N)Cc1ccc(O)cc1)[C@@H](C)O)[C@@H](C)O)[C@@H](C)CC)[C@@H](C)CC)C(=O)N[C@@H](CCC(=O)O)C(=O)NCC(=O)NCC(=O)N[C@@H](CCCCNC(=O)COCCOCCNC(=O)COCCOCCNC(=O)CC[C@H](NC(=O)CCCCCCCCCCCCC(=O)O)C(=O)O)C(=O)N[C@@H](CO)C(=O)N[C@@H](CO)C(=O)NCC(=O)N[C@@H](C)C(=O)N1CCC[C@H]1C(=O)N1CCC[C@H]1C(=O)N1CCC[C@H]1C(=O)N[C@@H](CO)C(N)=O [Example 148] | – | 0.0209 | > 9950 | 94.5 | –
